Consider 11 molecules from ChEMBL document CHEMBL1201862, “PubChem BioAssay data set” (2004).

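Briefly, cells in 96-well plates were exposed to five compound concentrations for 48 h, and endpoints were estimated by linear interpolation. Abbreviation: GI50, concentration required for 50% inhibition of growth.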 Activity calls are given as the source filed them. Cut-off read from the data, not from the text of the source: active = GI50 up to about 1.1 µM and inactive = higher. A value given as a limit tells only on which side of the number the result lay.

Among the test systems are SF-295; 786-0; HL-60; SR; SW-620; OVCAR-8; COLO 205; SN12C; UACC-62; MOLT-4; EKVX; LOX IMVI; SK-MEL-28; RXF 393; NCI-H226; HOP-92; SK-MEL-5; ACHN; CAKI-1; Hs-578T.
Assay in all cases: NCI tumour cell line growth inhibition, 48 h

As for `COc1ccc(/N=N/c2c(N)nn(C)c2N)cc1`, the GI50 with SF-295 is > 100 µM (inactive); with 786-0, > 100 µM (inactive); in the experiment with HL-60, > 100 µM (inactive); with SR it was 18.5 µM (inactive); in the experiment with SW-620, > 100 µM (inactive); with OVCAR-8, > 100 µM (inactive). Moreover, the GI50 with COLO 205 was > 100 µM (inactive); in the experiment on SN12C it was > 100 µM (inactive); with UACC-62, > 100 µM (inactive); in the experiment on MOLT-4, 82.8 µM (inactive); in the experiment on EKVX it was > 100 µM (inactive); with LOX IMVI, > 100 µM (inactive). Also, the GI50 in the experiment with SK-MEL-28, with RXF 393, in the experiment on NCI-H226, in the experiment with HOP-92, in the experiment on SK-MEL-5 and in the experiment with ACHN was > 100 µM (inactive) in each case. The GI50 in the experiment with CAKI-1 was > 100 µM (inactive).
As to `Brc1ccc(C2SCc3nc4ccccc4n32)cc1` (centres undefined), the GI50 in the experiment with SF-295 is 11.5 µM (inactive); in the experiment on 786-0 it was 12.2 µM (inactive); in the experiment with HL-60 it was 3.19 µM (inactive); in the experiment on SR, 7.6 µM (inactive); with SW-620, 13.3 µM (inactive); with OVCAR-8, 12.8 µM (inactive). The GI50 was 12.7 µM (inactive) in the experiment on COLO 205; 13.7 µM (inactive) in the experiment on SN12C; 6.68 µM (inactive) in the experiment with UACC-62; 13.4 µM (inactive) in the experiment with MOLT-4; 11.9 µM (inactive) with EKVX; 6.46 µM (inactive) with LOX IMVI. For the same molecule, the GI50 in the experiment with SK-MEL-28 was 4.72 µM (inactive); with RXF 393, 7.45 µM (inactive); in the experiment on NCI-H226, 17.4 µM (inactive); in the experiment on HOP-92 it was 1.06 µM (active); with SK-MEL-5, 3.72 µM (inactive); in the experiment with ACHN, 8.2 µM (inactive). The GI50 in the experiment with CAKI-1 was 14.4 µM (inactive).
Regarding `[O-][S+]1Cc2ccccc2CS1` (centres undefined), the GI50 is 31.6 µM (inactive) with SF-295; 15.7 µM (inactive) in the experiment on 786-0; 15.1 µM (inactive) with HL-60; 20 µM (inactive) with SR; 13.9 µM (inactive) in the experiment with SW-620; 15 µM (inactive) in the experiment with OVCAR-8. Moreover, the GI50 is 15.4 µM (inactive) in the experiment with COLO 205; 14 µM (inactive) in the experiment on SN12C; 13.2 µM (inactive) in the experiment with UACC-62; 15.4 µM (inactive) in the experiment on MOLT-4; 22.9 µM (inactive) with EKVX; 7.46 µM (inactive) in the experiment on LOX IMVI. The GI50 in the experiment on SK-MEL-28 was 14.9 µM (inactive); in the experiment with RXF 393, 15.9 µM (inactive); in the experiment on NCI-H226, 87.1 µM (inactive); in the experiment with HOP-92, 14 µM (inactive); in the experiment with SK-MEL-5 it was 43.2 µM (inactive); in the experiment on ACHN, 18.8 µM (inactive). Further, the GI50 with CAKI-1 is 13.9 µM (inactive).
As for `CC(=O)Nc1ccc(S(=O)(=O)Nc2cnc3ccccc3n2)cc1`, the GI50 with SF-295, with 786-0, with HL-60, with SR, in the experiment with SW-620 and with OVCAR-8 was > 100 µM (inactive) in each case. The GI50 with COLO 205, with SN12C, with UACC-62, in the experiment on MOLT-4, with EKVX and in the experiment on LOX IMVI was > 100 µM (inactive) in each case. The GI50 in the experiment with SK-MEL-28, in the experiment with RXF 393, in the experiment with NCI-H226, with HOP-92, in the experiment on SK-MEL-5 and with ACHN was > 100 µM (inactive) in each case. In the experiment with CAKI-1, the GI50 is > 100 µM (inactive).
For `Cn1c2cc(O)cc(O)c2c(=O)c2c([N+](=O)[O-])cccc21`, the GI50 in the experiment with SF-295, in the experiment on 786-0, in the experiment on HL-60, in the experiment with SR, in the experiment on SW-620 and in the experiment on OVCAR-8 was > 100 µM (inactive) in each case. In addition, the GI50 in the experiment on COLO 205, in the experiment with SN12C, in the experiment on UACC-62, in the experiment on MOLT-4, in the experiment with EKVX and in the experiment with LOX IMVI was > 100 µM (inactive) throughout. Further, the GI50 in the experiment on SK-MEL-28, in the experiment on RXF 393, in the experiment on NCI-H226, in the experiment on HOP-92, in the experiment with SK-MEL-5 and in the experiment with ACHN was > 100 µM (inactive) throughout. Besides, the GI50 in the experiment on CAKI-1 is > 100 µM (inactive).
In the case of `CC1(C)CC2=C(SC3C=CC=CC3N2)C(=O)C1C(=O)C(N)=O` (centres undefined), the GI50 in the experiment with SF-295 was > 100 µM (inactive); in the experiment on 786-0, > 100 µM (inactive); in the experiment on HL-60, 44.1 µM (inactive); with Hs-578T it was > 100 µM (inactive); in the experiment on SW-620 it was > 100 µM (inactive); in the experiment on OVCAR-8 it was > 100 µM (inactive). Further, the GI50 in the experiment with COLO 205 was > 100 µM (inactive); in the experiment with SN12C, > 100 µM (inactive); in the experiment on UACC-62, > 100 µM (inactive); with MOLT-4 it was 40.4 µM (inactive); in the experiment on EKVX, > 100 µM (inactive); in the experiment with LOX IMVI, > 100 µM (inactive). The GI50 with SK-MEL-28 is > 100 µM (inactive); in the experiment on NCI-H226 it was 91 µM (inactive); with HOP-92, > 100 µM (inactive); in the experiment on SK-MEL-5, > 100 µM (inactive); in the experiment with ACHN, > 100 µM (inactive); with CAKI-1, > 100 µM (inactive).
For the molecule `O=C1C/C(=C/c2ccc(/C=C3/CC(=O)N(c4cccc(Br)c4)C3=O)cc2)C(=O)N1c1cccc(Br)c1`, the GI50 is 60.7 µM (inactive) in the experiment on SF-295; 58.1 µM (inactive) with 786-0; > 100 µM (inactive) in the experiment on HL-60; 97.3 µM (inactive) with SR; > 100 µM (inactive) in the experiment with SW-620; > 100 µM (inactive) with OVCAR-8. Further, the GI50 was > 100 µM (inactive) in the experiment with COLO 205; > 100 µM (inactive) with SN12C; > 100 µM (inactive) in the experiment with UACC-62; 54.2 µM (inactive) in the experiment on MOLT-4; > 100 µM (inactive) in the experiment on EKVX; > 100 µM (inactive) in the experiment with LOX IMVI. For the same molecule, the GI50 is > 100 µM (inactive) with SK-MEL-28; 30.1 µM (inactive) in the experiment on RXF 393; > 100 µM (inactive) in the experiment with NCI-H226; 50.2 µM (inactive) in the experiment with HOP-92; > 100 µM (inactive) with SK-MEL-5; > 100 µM (inactive) with ACHN. Moreover, the GI50 with CAKI-1 is > 100 µM (inactive).
With `O=C(/C=C/c1ccccc1)c1ccc(NCc2nc3ccccc3[nH]2)cc1`, the GI50 in the experiment with SF-295 was 3.48 µM (inactive); with 786-0, 3.81 µM (inactive); in the experiment on HL-60 it was 2.33 µM (inactive); in the experiment with SR, 16.1 µM (inactive); with SW-620, 2.75 µM (inactive); in the experiment on OVCAR-8, 3.49 µM (inactive). In addition, the GI50 in the experiment with COLO 205 is 3.21 µM (inactive); with SN12C, 5.33 µM (inactive); in the experiment on UACC-62, 8.05 µM (inactive); in the experiment on MOLT-4, 3.56 µM (inactive); in the experiment on EKVX it was 8.65 µM (inactive); with LOX IMVI, 1.69 µM (inactive). The GI50 with SK-MEL-28 is 18 µM (inactive); in the experiment with RXF 393, 5.22 µM (inactive); with NCI-H226, 4.19 µM (inactive); with HOP-92, 6.18 µM (inactive); with SK-MEL-5, 2.45 µM (inactive); in the experiment with ACHN, 7.66 µM (inactive). For the same molecule, in the experiment on CAKI-1, the GI50 was 10.1 µM (inactive).
Consider `CCOC(=O)[C@@]12NN=N[C@@H]1[C@H]1CO[C@H](c3ccccc3)N1C2=O`, for which the GI50 in the experiment on SF-295 is 11.6 µM (inactive); in the experiment on 786-0, 5.97 µM (inactive); in the experiment with HL-60, 17.3 µM (inactive); in the experiment on Hs-578T it was 4.6 µM (inactive); in the experiment with SW-620 it was 7.67 µM (inactive); in the experiment on OVCAR-8, 5.68 µM (inactive). The GI50 in the experiment with COLO 205 was 10.2 µM (inactive); with SN12C, 11.1 µM (inactive); with UACC-62, 7.6 µM (inactive); with MOLT-4, 5.33 µM (inactive); in the experiment with EKVX it was 13.9 µM (inactive); in the experiment with LOX IMVI it was 2.18 µM (inactive). In addition, the GI50 in the experiment with SK-MEL-28 is 5.25 µM (inactive); with RXF 393, 3.58 µM (inactive); with HOP-92, 1.64 µM (inactive); in the experiment with SK-MEL-5, 11.1 µM (inactive); with ACHN, 13.4 µM (inactive); in the experiment with CAKI-1, 11 µM (inactive).
With `CCN(CC)CC(=O)/C=C/c1ccc(C)cc1`, the GI50 in the experiment with SF-295 was 32 µM (inactive); in the experiment on 786-0, 17.6 µM (inactive); in the experiment with HL-60 it was 20.2 µM (inactive); in the experiment with SR it was 27.7 µM (inactive); in the experiment on SW-620 it was 16.2 µM (inactive); with OVCAR-8, 20.1 µM (inactive). Also, the GI50 in the experiment on COLO 205 was 18.8 µM (inactive); in the experiment on SN12C it was 17.6 µM (inactive); in the experiment on UACC-62, 17.3 µM (inactive); in the experiment with MOLT-4 it was 31.9 µM (inactive); with LOX IMVI, 18.5 µM (inactive); in the experiment on SK-MEL-28, 23.8 µM (inactive). Further, the GI50 in the experiment with RXF 393 is 24.3 µM (inactive); in the experiment with NCI-H226, 22.1 µM (inactive); with HOP-92, 30.1 µM (inactive); in the experiment with SK-MEL-5, 17.8 µM (inactive); with ACHN it was 19.2 µM (inactive); in the experiment on CAKI-1, 17.8 µM (inactive).
Take `Nc1nc(N)c2ncn(CC3CCC(CO)C3)c2n1` (centres undefined): the GI50 in the experiment with SF-295, in the experiment on 786-0, with Hs-578T, with SW-620, in the experiment on COLO 205 and in the experiment with SN12C was > 100 µM (inactive) each time. For the same molecule, the GI50 in the experiment on UACC-62, with MOLT-4, with EKVX, in the experiment with LOX IMVI, in the experiment on SK-MEL-28 and with RXF 393 was > 100 µM (inactive) each time. Also, the GI50 in the experiment on NCI-H226, with HOP-92, in the experiment with SK-MEL-5, with ACHN and in the experiment on CAKI-1 was > 100 µM (inactive) throughout.
